Paper PMC5218480 (PLoS ONE, 2017)

Tested on: MV-4-11 cells
Experiment: Gene expression microarray analysis (Affymetrix PrimeView) and GSEA
Type: cell-based, human
Set-up: RFU PODN (11730768_x_at) / Fold change /veh PODN (11730768_x_at) / RFU LINC00158 (11744669_a_at) / Fold change /veh LINC00158 (11744669_a_at) / RFU DUSP10 (11751237_a_at) / Fold change /veh DUSP10 (11751237_a_at) / RFU ID3 (11757404_x_at) / Fold change /veh ID3 (11757404_x_at) / RFU PLEKHG5 (11737974_s_at) / Fold change /veh PLEKHG5 (11737974_s_at) / RFU LRRC4B (11730491_at) / Fold change /veh LRRC4B (11730491_at) / RFU GIMAP4 (11747438_a_at) / Fold change /veh GIMAP4 (11747438_a_at) / RFU KRT8 (11758183_x_at) / Fold change /veh KRT8 (11758183_x_at) / RFU CNN1 (11734310_a_at) / Fold change /veh CNN1 (11734310_a_at) / RFU VPS37D (11726825_at) / Fold change /veh VPS37D (11726825_at) / RFU C10orf10 (11716522_x_at) / Fold change /veh C10orf10 (11716522_x_at) / RFU KIR2DL2 /// KIR2DL4 /// KIR2DL5A /// KIR2DL5B /// KIR2DS1 /// KIR2DS2 /// KIR2DS3 /// KIR2DS4 /// KIR3DL3 /// KIR3DL3 /// KIR3DS1 (11738374_at) / Fold change /veh KIR2DL2 /// KIR2DL4 /// KIR2DL5A /// KIR2DL5B /// KIR2DS1 /// KIR2DS2 /// KIR2DS3 /// KIR2DS4 /// KIR3DL3 /// KIR3DL3 /// KIR3DS1 (11738374_at) / RFU C1QL1 (11718748_at) / Fold change /veh C1QL1 (11718748_at) / RFU TMPRSS4 (11747572_a_at) / Fold change /veh TMPRSS4 (11747572_a_at) / RFU HAMP (11756126_x_at) / Fold change /veh HAMP (11756126_x_at) / RFU RNFT2 (11725882_a_at) / Fold change /veh RNFT2 (11725882_a_at) / RFU NR4A2 (11747474_a_at) / Fold change /veh NR4A2 (11747474_a_at) / RFU ABCC12 (11746883_a_at) / Fold change /veh ABCC12 (11746883_a_at) / RFU TMEM136 (11760407_x_at) / Fold change /veh TMEM136 (11760407_x_at) / RFU CLDN22 /// WWC2 (11732394_at) / Fold change /veh CLDN22 /// WWC2 (11732394_at) / RFU HLA-DPB1 (11760878_x_at) / Fold change /veh HLA-DPB1 (11760878_x_at) / RFU SPINT1 (11716480_a_at) / Fold change /veh SPINT1 (11716480_a_at) / RFU GAP43 (11754022_s_at) / Fold change /veh GAP43 (11754022_s_at) / RFU A4GNT (11735810_at) / Fold change /veh A4GNT (11735810_at) / RFU PRB3 (11715151_x_at) / Fold change /veh PRB3 (11715151_x_at) / RFU TUBB4B (11761932_at) / Fold change /veh TUBB4B (11761932_at) / RFU CAPN14 (11732068_a_at) / Fold change /veh CAPN14 (11732068_a_at) / RFU TMCC2 (11721928_a_at) / Fold change /veh TMCC2 (11721928_a_at) / RFU IRGQ (11745062_a_at) / Fold change /veh IRGQ (11745062_a_at) / RFU FAM174B (11720279_a_at) / Fold change /veh FAM174B (11720279_a_at) / RFU TMPRSS4 (11748680_a_at) / Fold change /veh TMPRSS4 (11748680_a_at) / RFU FAM212B (11763350_a_at) / Fold change /veh FAM212B (11763350_a_at) / RFU PLEKHG5 (11743358_a_at) / Fold change /veh PLEKHG5 (11743358_a_at) / RFU ZSCAN30 (11745921_a_at) / Fold change /veh ZSCAN30 (11745921_a_at) / RFU CMKLR1 (11741424_a_at) / Fold change /veh CMKLR1 (11741424_a_at) / RFU LOC101060620 /// MAPK8IP1 (11723275_at) / Fold change /veh LOC101060620 /// MAPK8IP1 (11723275_at) / RFU SPTSSB (11747773_x_at) / Fold change /veh SPTSSB (11747773_x_at) / RFU PRSS12 (11739890_at) / Fold change /veh PRSS12 (11739890_at) / RFU BIN1 (11741810_x_at) / Fold change /veh BIN1 (11741810_x_at) / RFU WNT11 (11732464_a_at) / Fold change /veh WNT11 (11732464_a_at) / RFU C10orf10 (11716521_a_at) / Fold change /veh C10orf10 (11716521_a_at) / RFU C5orf56 (11738089_at) / Fold change /veh C5orf56 (11738089_at) / RFU CYB561 (11721691_x_at) / Fold change /veh CYB561 (11721691_x_at) / RFU ANKRD19P (11752326_a_at) / Fold change /veh ANKRD19P (11752326_a_at) / RFU OR2T12 /// OR2T33 /// OR2T8 (11738714_s_at) / Fold change /veh OR2T12 /// OR2T33 /// OR2T8 (11738714_s_at) / RFU VCAN (11748164_a_at) / Fold change /veh VCAN (11748164_a_at) / RFU JSRP1 (11732532_at) / Fold change /veh JSRP1 (11732532_at) / RFU KRTAP10-11 (11738290_x_at) / Fold change /veh KRTAP10-11 (11738290_x_at) / RFU MYO3A (11730013_a_at) / Fold change /veh MYO3A (11730013_a_at) / RFU EBF3 (11725865_a_at) / Fold change /veh EBF3 (11725865_a_at) / RFU CAMK2N1 (11719241_x_at) / Fold change /veh CAMK2N1 (11719241_x_at) / RFU C5orf56 (11738088_a_at) / Fold change /veh C5orf56 (11738088_a_at) / RFU OLFML3 (11715873_a_at) / Fold change /veh OLFML3 (11715873_a_at) / RFU LOC100653217 /// NTM (11731650_a_at) / Fold change /veh LOC100653217 /// NTM (11731650_a_at) / RFU MAPK11 (11762145_a_at) / Fold change /veh MAPK11 (11762145_a_at) / RFU FIZ1 (11724087_x_at) / Fold change /veh FIZ1 (11724087_x_at) / RFU OASL (11726364_x_at) / Fold change /veh OASL (11726364_x_at) / RFU SOX15 (11748057_x_at) / Fold change /veh SOX15 (11748057_x_at) / RFU CD79A (11719716_a_at) / Fold change /veh CD79A (11719716_a_at) / RFU HIST1H1D (11736915_at) / Fold change /veh HIST1H1D (11736915_at) / RFU CASKIN2 (11723855_a_at) / Fold change /veh CASKIN2 (11723855_a_at) / RFU LOC730098 (11760151_x_at) / Fold change /veh LOC730098 (11760151_x_at) / RFU OR4N2 (11742367_at) / Fold change /veh OR4N2 (11742367_at) / RFU PRRT2 (11749266_a_at) / Fold change /veh PRRT2 (11749266_a_at) / RFU SNX32 (11753110_a_at) / Fold change /veh SNX32 (11753110_a_at) / RFU CDHR5 (11726645_a_at) / Fold change /veh CDHR5 (11726645_a_at) / RFU RCAN1 (11760418_a_at) / Fold change /veh RCAN1 (11760418_a_at) / RFU FAM167A (11723789_a_at) / Fold change /veh FAM167A (11723789_a_at) / RFU FAM26E (11764081_at) / Fold change /veh FAM26E (11764081_at) / RFU ISYNA1 (11749810_s_at) / Fold change /veh ISYNA1 (11749810_s_at) / RFU ACY1 (11761880_at) / Fold change /veh ACY1 (11761880_at) / RFU 11764098_at / Fold change /veh 11764098_at / RFU SAMD14 (11745864_x_at) / Fold change /veh SAMD14 (11745864_x_at) / RFU NPB (11741838_a_at) / Fold change /veh NPB (11741838_a_at) / RFU TMPRSS6 (11731388_a_at) / Fold change /veh TMPRSS6 (11731388_a_at) / RFU KRTAP10-2 (11738614_at) / Fold change /veh KRTAP10-2 (11738614_at) / RFU ARHGAP8 /// PRR5-ARHGAP8 (11727945_x_at) / Fold change /veh ARHGAP8 /// PRR5-ARHGAP8 (11727945_x_at) / RFU KRTAP5-7 /// NADSYN1 (11734609_at) / Fold change /veh KRTAP5-7 /// NADSYN1 (11734609_at) / RFU RASL12 (11751679_a_at) / Fold change /veh RASL12 (11751679_a_at) / RFU CDKN2B (11736163_a_at) / Fold change /veh CDKN2B (11736163_a_at) / RFU PRF1 (11729649_at) / Fold change /veh PRF1 (11729649_at) / RFU, ZNF638 /// ZNF638-IT1 / Fold change vs veh, ZNF638 /// ZNF638-IT1 / RFU, PANK3 / Fold change vs veh, PANK3 / RFU, SH3YL1 / Fold change vs veh, SH3YL1 / RFU, ZEB2 / Fold change vs veh, ZEB2 / RFU, NRIP1 / Fold change vs veh, NRIP1 / RFU, PTTG1IP / Fold change vs veh, PTTG1IP / RFU, CAPN2 / Fold change vs veh, CAPN2 / RFU, MED14 / Fold change vs veh, MED14 / RFU, SNORA58 / Fold change vs veh, SNORA58 / RFU, C1orf63 / Fold change vs veh, C1orf63 / RFU, LRRFIP1 / Fold change vs veh, LRRFIP1 / RFU, NDUFAF7 / Fold change vs veh, NDUFAF7 / RFU, SLC12A2 / Fold change vs veh, SLC12A2 / RFU, IBTK / Fold change vs veh, IBTK / RFU, ESF1 / Fold change vs veh, ESF1 / Fold change vs veh, TMEM50B / RFU, TAOK1 / Fold change vs veh, TAOK1 / RFU, ACBD3 / Fold change vs veh, ACBD3 / RFU, TMA16 / Fold change vs veh, TMA16 / RFU, RWDD3 / Fold change vs veh, RWDD3 / RFU, BCAT1 / Fold change vs veh, BCAT1 / RFU, EDEM3 / Fold change vs veh, EDEM3 / RFU, TMEM33 / Fold change vs veh, TMEM33 / RFU, WDR75 / Fold change vs veh, WDR75 / RFU, AHCTF1 / Fold change vs veh, AHCTF1 / RFU, TFRC / Fold change vs veh, TFRC / RFU, ZDHHC17 / Fold change vs veh, ZDHHC17 / RFU, NOM1 / Fold change vs veh, NOM1 / RFU, ARL8B / Fold change vs veh, ARL8B / RFU, ZBTB11 / Fold change vs veh, ZBTB11 / RFU, TAMM41 / Fold change vs veh, TAMM41 / RFU, KIAA1704 /// LOC100996395 / Fold change vs veh, KIAA1704 /// LOC100996395 / RFU, ING1 / Fold change vs veh, ING1 / RFU, TRMT61B / Fold change vs veh, TRMT61B / RFU, FUBP3 / Fold change vs veh, FUBP3 / RFU, TP53 / Fold change vs veh, TP53 / RFU, TNKS2 / Fold change vs veh, TNKS2 / RFU, ZFP14 / Fold change vs veh, ZFP14 / RFU, ACTR2 / Fold change vs veh, ACTR2 / RFU, PPP3R1 / Fold change vs veh, PPP3R1 / RFU, PIK3R1 / Fold change vs veh, PIK3R1 / RFU, HNRNPA1 / Fold change vs veh, HNRNPA1 / RFU, RNF170 / Fold change vs veh, RNF170 / RFU, ZNF28 / Fold change vs veh, ZNF28 / RFU, RNGTT / Fold change vs veh, RNGTT / RFU, OGT / Fold change vs veh, OGT / RFU, BRD1 / Fold change vs veh, BRD1 / RFU, MARS / Fold change vs veh, MARS / RFU, ZNF655 / Fold change vs veh, ZNF655 / RFU, FAHD1 / Fold change vs veh, FAHD1 / RFU, BDP1 / Fold change vs veh, BDP1 / RFU, LRRCC1 / Fold change vs veh, LRRCC1 / RFU, ARID1A / Fold change vs veh, ARID1A / RFU, ZNF146 / Fold change vs veh, ZNF146 / RFU, ZNF330 / Fold change vs veh, ZNF330 / RFU, GPN3 / Fold change vs veh, GPN3 / RFU, C9orf123 / Fold change vs veh, C9orf123 / RFU, N4BP2L2 / Fold change vs veh, N4BP2L2 / RFU, ARFIP1 / Fold change vs veh, ARFIP1 / RFU, FAM179B / Fold change vs veh, FAM179B / RFU, BCL10 / Fold change vs veh, BCL10 / RFU, UHRF1BP1L / Fold change vs veh, UHRF1BP1L / RFU, BET1 / Fold change vs veh, BET1 / RFU, CNOT2 / Fold change vs veh, CNOT2 / RFU, ZNF268 / Fold change vs veh, ZNF268 / Fold change vs veh, ZNF507 / RFU, DGCR2 / Fold change vs veh, DGCR2 / RFU, WDSUB1 / Fold change vs veh, WDSUB1 / Fold change vs veh, HSP90B1 /// MIR3652 / RFU, ADSS / Fold change vs veh, ADSS / RFU, GK / Fold change vs veh, GK / RFU, ZNF148 / Fold change vs veh, ZNF148 / RFU, TAF9 / Fold change vs veh, TAF9 / RFU, SLC1A5 / Fold change vs veh, SLC1A5 / RFU, SLMO2 / Fold change vs veh, SLMO2 / RFU, ABCC4 / Fold change vs veh, ABCC4 / RFU, LOC101060439 /// RAP1B / Fold change vs veh, LOC101060439 /// RAP1B / RFU, RFX7 / Fold change vs veh, RFX7 / RFU, GTPBP10 / Fold change vs veh, GTPBP10 / RFU, CNEP1R1 / Fold change vs veh, CNEP1R1 / RFU, BIVM-ERCC5 /// ERCC5 / Fold change vs veh, BIVM-ERCC5 /// ERCC5 / RFU, ILF3 / Fold change vs veh, ILF3 / RFU 11762660_at / Fold change /veh 11762660_at / RFU VCAN (11757783_s_at) / Fold change /veh VCAN (11757783_s_at) / RFU DDX43 (11728927_at) / Fold change /veh DDX43 (11728927_at) / RFU KRT8 (11758188_x_at) / Fold change /veh KRT8 (11758188_x_at) / RFU NKD1 (11759106_at) / Fold change /veh NKD1 (11759106_at) / RFU SRD5A1 (11742802_a_at) / Fold change /veh SRD5A1 (11742802_a_at) / RFU TPSAB1 /// TPSB2 (11721975_s_at) / Fold change /veh TPSAB1 /// TPSB2 (11721975_s_at) / RFU GSTM3 (11746129_a_at) / Fold change /veh GSTM3 (11746129_a_at) / RFU IL23R (11737362_x_at) / Fold change /veh IL23R (11737362_x_at) / RFU TMEM51 (11727254_a_at) / Fold change /veh TMEM51 (11727254_a_at) / RFU PIWIL2 (11732686_x_at) / Fold change /veh PIWIL2 (11732686_x_at) / RFU ORM1 (11744905_x_at) / Fold change /veh ORM1 (11744905_x_at) / RFU CCDC152 (11743942_at) / Fold change /veh CCDC152 (11743942_at) / RFU ECM1 (11717891_a_at) / Fold change /veh ECM1 (11717891_a_at) / RFU IL23R (11748794_a_at) / Fold change /veh IL23R (11748794_a_at) / RFU TNFAIP8L3 (11732012_x_at) / Fold change /veh TNFAIP8L3 (11732012_x_at) / RFU MBOAT4 (11741988_at) / Fold change /veh MBOAT4 (11741988_at) / RFU 11764193_at / Fold change /veh 11764193_at / RFU TMEM53 (11763286_at) / Fold change /veh TMEM53 (11763286_at) / RFU MAGEB2 (11727129_at) / Fold change /veh MAGEB2 (11727129_at) / RFU TMEM200A (11744735_a_at) / Fold change /veh TMEM200A (11744735_a_at) / RFU CCDC152 (11751479_a_at) / Fold change /veh CCDC152 (11751479_a_at) / RFU FAM211A (11726209_a_at) / Fold change /veh FAM211A (11726209_a_at) / RFU RGS16 (11746705_a_at) / Fold change /veh RGS16 (11746705_a_at) / RFU VCAN (11755009_s_at) / Fold change /veh VCAN (11755009_s_at) / RFU RHOB (11743442_s_at) / Fold change /veh RHOB (11743442_s_at) / RFU RGS16 (11720943_a_at) / Fold change /veh RGS16 (11720943_a_at) / RFU RGS16 (11720944_at) / Fold change /veh RGS16 (11720944_at) / RFU, VPS4B / Fold change vs veh, VPS4B / RFU, CREB1 / Fold change vs veh, CREB1 / RFU, DNAJC13 / Fold change vs veh, DNAJC13 / RFU, GNAQ / Fold change vs veh, GNAQ / RFU, CDK5R1 / Fold change vs veh, CDK5R1 / RFU, ZRANB3 / Fold change vs veh, ZRANB3 / RFU, CUL4A / Fold change vs veh, CUL4A / RFU, CCNY / Fold change vs veh, CCNY / RFU, UFL1 / Fold change vs veh, UFL1 / RFU, COG3 / Fold change vs veh, COG3 / RFU, DIAPH2 / Fold change vs veh, DIAPH2 / RFU, SKA2 / Fold change vs veh, SKA2 / RFU, AFF3 / Fold change vs veh, AFF3 / RFU, LMF1 / Fold change vs veh, LMF1 / RFU, IPO11 / Fold change vs veh, IPO11 / RFU, DFFB / Fold change vs veh, DFFB / RFU, FOXP1 / Fold change vs veh, FOXP1 / RFU, CARD8 / Fold change vs veh, CARD8 / RFU, STRN3 / Fold change vs veh, STRN3 / RFU, ADK / Fold change vs veh, ADK / RFU, RASSF2 / Fold change vs veh, RASSF2 / RFU, WIPF1 / Fold change vs veh, WIPF1 / RFU, LARP1B / Fold change vs veh, LARP1B / RFU, RASA1 / Fold change vs veh, RASA1 / RFU, RB1 / Fold change vs veh, RB1 / RFU, PPFIA1 / Fold change vs veh, PPFIA1 / RFU, MAT2A / Fold change vs veh, MAT2A / RFU, CCT5 / Fold change vs veh, CCT5 / RFU, WDR92 / Fold change vs veh, WDR92 / RFU, CUX1 / Fold change vs veh, CUX1 / RFU, TTC7A / Fold change vs veh, TTC7A / RFU, TMEM135 / Fold change vs veh, TMEM135 / RFU, DEPTOR / Fold change vs veh, DEPTOR / RFU, CPM / Fold change vs veh, CPM / RFU, DNAJB6 / Fold change vs veh, DNAJB6 / RFU, CACNA2D3 / Fold change vs veh, CACNA2D3 / RFU, DTX4 / Fold change vs veh, DTX4 / RFU, TFCP2 / Fold change vs veh, TFCP2 / RFU, GMCL1 /// GMCL1P1 / Fold change vs veh, GMCL1 /// GMCL1P1 / RFU, AEBP2 / Fold change vs veh, AEBP2 / RFU, SNHG1 /// SNORD22 /// SNORD25 /// SNORD26 /// SNORD27 /// SNORD28 /// SNORD29 /// SNORD31 / Fold change vs veh, SNHG1 /// SNORD22 /// SNORD25 /// SNORD26 /// SNORD27 /// SNORD28 /// SNORD29 /// SNORD31 / Fold change (Aza/veh), C12orf56 (ProbeSet 11735607_a_at) / Fold change (ACY-1035/veh), C12orf56 (ProbeSet 11735607_a_at) / Fold change (Aza/veh), FGFR1OP (ProbeSet 11751329_s_at) / Fold change (ACY-1035/veh), FGFR1OP (ProbeSet 11751329_s_at) / Fold change (Aza/veh), VPS36 (ProbeSet 11739960_a_at) / Fold change (ACY-1035/veh), VPS36 (ProbeSet 11739960_a_at) / RFU SYPL1 (11715823_x_at) / Fold change /veh SYPL1 (11715823_x_at) / RFU IGFBP7 (11715501_s_at) / Fold change /veh IGFBP7 (11715501_s_at) / RFU REEP3 (11722064_at) / Fold change /veh REEP3 (11722064_at) / RFU IGLL1 (11728026_x_at) / Fold change /veh IGLL1 (11728026_x_at): dose or concentration left out as unconfirmed
Settings: MV-4-11 cells, 48 hours

Q: Which “RFU MYO3A (11730013_a_at)” value does the source give for Nc1ccc(-c2cccs2)cc1NC(=O)c1ccc2c(c1)cc(C1CC1)n2CCN1CCOCC1 [ACY-1035] here?
A: The value was 90.31 RFU.
